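Grown in 96-well plates, cells were treated for 48 hours with each compound at five concentrations. Insufficient inhibition: endpoint recorded as highest concentration tested. Abbreviation: GI50, concentration required for 50% inhibition of growth.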 Active and inactive are the calls of the source. Cut-off read from the data, not from the text of the source: active = GI50 up to about 1.1 µM and inactive = higher.
What was measured:
Test in all cases: growth of human tumour cells (NCI), 48 h
[1] = system: SK-MEL-5
[2] = system: CAKI-1
[3] = system: NCI/ADR-RES
[4] = system: SNB-19
[5] = system: UO-31
[6] = system: COLO 205
[7] = system: NCI-H23
[8] = system: PC-3
[9] = system: SF-539
[10] = system: HCT-15
[11] = system: HOP-92
[12] = system: U-251
[13] = system: KM12
[14] = system: OVCAR-4
[15] = system: SK-MEL-28
[16] = system: ACHN
[17] = system: NCI-H226
[18] = system: CCRF-CEM
[19] = system: A498
[20] = system: Malme-3M

Structure (SMILES) | GI50 [1] | GI50 [2] | GI50 [3] | GI50 [4] | GI50 [5] | GI50 [6] | GI50 [7] | GI50 [8] | GI50 [9] | GI50 [10] [µM] | GI50 [11] | GI50 [12] | GI50 [13] | GI50 [14] | GI50 [15] | GI50 [16] | GI50 [17] | GI50 [18] | GI50 [19] | GI50 [20]
CC(=O)/N=C1\N/C(=C/c2cc([N+](=O)[O-])ccc2O)CN1C | > 100 µM (inactive) | > 100 µM (inactive) | > 100 µM (inactive) | > 100 µM (inactive) | > 100 µM (inactive) | > 100 µM (inactive) | > 100 µM (inactive) | > 100 µM (inactive) | > 100 µM (inactive) | > 100 | > 100 µM (inactive) | > 100 µM (inactive) | > 100 µM (inactive) | > 100 µM (inactive) | > 100 µM (inactive) | > 100 µM (inactive) | > 100 µM (inactive) |  |  | 
CN1C(=O)C(C#N)C2C[C@@]1(C)Oc1ccccc12 (stereo not given in full) | > 100 µM (inactive) | > 100 µM (inactive) | > 100 µM (inactive) | > 100 µM (inactive) | > 100 µM (inactive) | > 100 µM (inactive) | > 100 µM (inactive) | > 100 µM (inactive) |  | > 100 | > 100 µM (inactive) | > 100 µM (inactive) | > 100 µM (inactive) | > 100 µM (inactive) | > 100 µM (inactive) | > 100 µM (inactive) | > 100 µM (inactive) | > 100 µM (inactive) | > 100 µM (inactive) | 
C=C1CC[C@@H](Br)C(C)(C)[C@]12CCC(C)(O)C(Cl)C2 (stereo not given in full) | 20.9 µM (inactive) | 15.8 µM (inactive) |  | 19.8 µM (inactive) | 18.1 µM (inactive) | 16 µM (inactive) | 26.1 µM (inactive) |  |  | 16 | 23 µM (inactive) | 16.2 µM (inactive) | 18.2 µM (inactive) |  | 20 µM (inactive) | 20.9 µM (inactive) | 16.7 µM (inactive) | 24.2 µM (inactive) | 28.9 µM (inactive) | 30.3 µM (inactive)
CCOC(=O)/C=C1/C(CCCOCc2ccccc2)C2CCCC23CC2(CCN13)OCCO2 (stereo not given) | 15.7 µM (inactive) |  |  | 33.3 µM (inactive) | 17.2 µM (inactive) | 19.1 µM (inactive) | 12.5 µM (inactive) |  |  | 20.4 |  | 20.1 µM (inactive) | 22.3 µM (inactive) | 24.3 µM (inactive) | 18.4 µM (inactive) | 22.3 µM (inactive) | 22.6 µM (inactive) | 19.5 µM (inactive) | 19.9 µM (inactive) | 16.1 µM (inactive)
O=C(NN1C(=O)CSC1c1ccc(C(F)(F)F)cc1)c1ccncc1 (stereo not given) | > 100 µM (inactive) | > 100 µM (inactive) | > 100 µM (inactive) | > 100 µM (inactive) | > 100 µM (inactive) |  | > 100 µM (inactive) |  | > 100 µM (inactive) | > 100 | > 100 µM (inactive) | > 100 µM (inactive) | > 100 µM (inactive) | > 100 µM (inactive) | > 100 µM (inactive) |  | > 100 µM (inactive) | > 100 µM (inactive) | > 31.6 µM (inactive) | > 100 µM (inactive)
N/C(=N\O)N/N=C/c1ncccc1O | 11.4 µM (inactive) | 22.4 µM (inactive) | 8.73 µM (inactive) | 33.8 µM (inactive) | 13.3 µM (inactive) | 11.9 µM (inactive) | > 49 µM (inactive) |  | 19.7 µM (inactive) | 4.66 | 61.7 µM (inactive) | 15.5 µM (inactive) | 5.81 µM (inactive) | 18.1 µM (inactive) | 45.9 µM (inactive) |  | 18.7 µM (inactive) | 6.43 µM (inactive) | 35.7 µM (inactive) | 35.2 µM (inactive)
Clc1cc(N/N=C(\c2ccccc2)c2ccccn2)ncn1 | 0.254 µM (active) | < 0.01 µM (active) | 0.0336 µM (active) | 1.85 µM (inactive) | 0.324 µM (active) | < 0.01 µM (active) | 0.0904 µM (active) | 0.0728 µM (active) | 0.197 µM (active) |  | 2.44 µM (inactive) | 0.427 µM (active) | 1.22 µM (inactive) | 10.9 µM (inactive) | 1.44 µM (inactive) | 0.0266 µM (active) | 0.246 µM (active) | < 0.01 µM (active) |  | < 0.01 µM (active)
CC12CCC(=O)N1c1cnccc1N2 (stereo not given) | > 100 µM (inactive) | > 100 µM (inactive) |  | > 100 µM (inactive) | > 100 µM (inactive) | > 100 µM (inactive) | > 100 µM (inactive) |  | > 100 µM (inactive) | > 100 | > 100 µM (inactive) | > 100 µM (inactive) | > 100 µM (inactive) | > 100 µM (inactive) | > 100 µM (inactive) | > 100 µM (inactive) |  | > 100 µM (inactive) | > 100 µM (inactive) | > 100 µM (inactive)
Nc1c(S(=O)(=O)O)cc(S(=O)(=O)O)c2ccc(/N=N/c3ccc(/C=C/c4ccc(/N=N/c5ccc6c(S(=O)(=O)O)cc(S(=O)(=O)O)c(N)c6c5O)cc4S(=O)(=O)O)c(S(=O)(=O)O)c3)c(O)c12 | > 100 µM (inactive) |  | > 100 µM (inactive) | > 100 µM (inactive) | 37.1 µM (inactive) | > 100 µM (inactive) | > 100 µM (inactive) |  | > 100 µM (inactive) | > 73.5 | 35.6 µM (inactive) | > 100 µM (inactive) | > 100 µM (inactive) | > 57.9 µM (inactive) | > 100 µM (inactive) |  | > 100 µM (inactive) | > 100 µM (inactive) | > 100 µM (inactive) | > 100 µM (inactive)
CCOC(=O)CCc1c(C)c2c(O)cc(O)cc2oc1=O | > 100 µM (inactive) | > 100 µM (inactive) | > 100 µM (inactive) | > 84.1 µM (inactive) | > 87.1 µM (inactive) | > 100 µM (inactive) | > 100 µM (inactive) |  | > 100 µM (inactive) | 99.1 | > 100 µM (inactive) | 53.8 µM (inactive) | > 100 µM (inactive) | > 100 µM (inactive) | > 100 µM (inactive) |  | > 87.9 µM (inactive) | 26 µM (inactive) | > 100 µM (inactive) | > 100 µM (inactive)
CCOc1ncn(-c2ccc(NC(=S)Nc3cccc(O)c3)cc2)n1 | > 100 µM (inactive) |  |  | > 100 µM (inactive) | > 100 µM (inactive) | > 100 µM (inactive) | > 100 µM (inactive) | > 100 µM (inactive) | > 100 µM (inactive) | > 100 | > 100 µM (inactive) | > 100 µM (inactive) | > 100 µM (inactive) | > 100 µM (inactive) | > 100 µM (inactive) |  |  | > 100 µM (inactive) |  | 
CC1(C)OC[C@H](C(=N)OCc2ccccc2)O1 | > 100 µM (inactive) | > 100 µM (inactive) |  | > 100 µM (inactive) | > 100 µM (inactive) | > 100 µM (inactive) | > 100 µM (inactive) |  | > 100 µM (inactive) | > 100 | > 100 µM (inactive) | > 100 µM (inactive) | > 100 µM (inactive) | > 100 µM (inactive) | > 100 µM (inactive) | > 100 µM (inactive) | 19.3 µM (inactive) | > 100 µM (inactive) | > 100 µM (inactive) | > 100 µM (inactive)
CCCCCCCCCCCCCCCc1nnc(S)[nH]1 |  |  |  | > 100 µM (inactive) | 24 µM (inactive) |  | > 100 µM (inactive) |  | > 100 µM (inactive) | 48 |  | > 100 µM (inactive) | > 100 µM (inactive) | 46.1 µM (inactive) | > 100 µM (inactive) | > 100 µM (inactive) |  | 51.3 µM (inactive) | > 100 µM (inactive) | > 100 µM (inactive)
N#C/C(=C\c1ccc(Cl)cc1)c1nc2ccccc2c(=O)[nH]1 | > 100 µM (inactive) | > 100 µM (inactive) | > 100 µM (inactive) | 85.9 µM (inactive) | > 100 µM (inactive) | > 100 µM (inactive) |  | > 100 µM (inactive) | > 100 µM (inactive) | > 100 | 11 µM (inactive) | 52.5 µM (inactive) | > 100 µM (inactive) | > 100 µM (inactive) | > 100 µM (inactive) | 65.8 µM (inactive) | > 100 µM (inactive) | > 100 µM (inactive) |  | > 100 µM (inactive)
O=C1C=CC=C/C1=C1\N=C(c2ccccc2OCC(=O)c2ccccc2)SS1 |  | > 100 µM (inactive) | > 100 µM (inactive) | > 100 µM (inactive) | > 100 µM (inactive) |  | > 100 µM (inactive) |  | 86.7 µM (inactive) | > 100 | > 100 µM (inactive) | 44.8 µM (inactive) | > 100 µM (inactive) | > 100 µM (inactive) | > 100 µM (inactive) | > 100 µM (inactive) | > 100 µM (inactive) | > 100 µM (inactive) | > 100 µM (inactive) | > 100 µM (inactive)
O=C1OC(CN2CCOCC2)CN1/N=C/c1ccc([N+](=O)[O-])o1 (stereo not given) [FURALTADONE] | 23.6 µM (inactive) | 38.5 µM (inactive) | 35.4 µM (inactive) | 86.1 µM (inactive) | 97.1 µM (inactive) | 27.5 µM (inactive) | 22.9 µM (inactive) | 54.2 µM (inactive) | 42.1 µM (inactive) | 17 | 64.4 µM (inactive) | 31.6 µM (inactive) | 18.5 µM (inactive) | 45.5 µM (inactive) | > 100 µM (inactive) | 35.6 µM (inactive) | 39.1 µM (inactive) | 53 µM (inactive) |  | 22.7 µM (inactive)
